Test results published in ChEMBL document CHEMBL2177026, “Acyl guanidine inhibitors of β-secretase (BACE-1): optimization of a micromolar hit to a nanomolar lead via iterative solid- and solution-phase library synthesis” (J Med Chem, 2012).

Assays:
Assay type in all cases: cell-based
[1] = target: T1, Beta-secretase 1 (Homo sapiens, UniProt P56817); experiment: Displacement of [3H]BMS-599240 from BACE1 expressed in HEK293 cells
[2] = target: T1, Beta-secretase 1; experiment: Ratio of IC50 for BACE1 in HEK293 cells expressing APP 695 Swedish mutant to Ki for BACE1
[3] = target: T1, Beta-secretase 1; experiment: Inhibition of BACE1 in human HEK293 cells expressing APP 695 Swedish mutant assessed as inhibition of amyloid beta (1 to 40) production after overnight incubation by ELISA
[4] = target: T1, Beta-secretase 1; experiment: Ratio of IC50 for BACE1 in human KBV1 cells expressing APP 751 Swedish mutant in absence of tariquidar to IC50 for BACE1 in human KBV1 cells expressing APP 751 Swedish mutant in presence of tariquidar
[5] = target: T1, Beta-secretase 1; experiment: Inhibition of BACE1 in human KBV1 cells expressing APP 751 Swedish mutant assessed as inhibition of amyloid beta (1 to 40) production after overnight incubation by ELISA in presence of tariquidar
[6] = target: T1, Beta-secretase 1; experiment: Inhibition of BACE1 in human KBV1 cells expressing APP 751 Swedish mutant assessed as inhibition of amyloid beta (1 to 40) production after overnight incubation by ELISA in absence of tariquidar

T1 sequence (P56817 whole entry): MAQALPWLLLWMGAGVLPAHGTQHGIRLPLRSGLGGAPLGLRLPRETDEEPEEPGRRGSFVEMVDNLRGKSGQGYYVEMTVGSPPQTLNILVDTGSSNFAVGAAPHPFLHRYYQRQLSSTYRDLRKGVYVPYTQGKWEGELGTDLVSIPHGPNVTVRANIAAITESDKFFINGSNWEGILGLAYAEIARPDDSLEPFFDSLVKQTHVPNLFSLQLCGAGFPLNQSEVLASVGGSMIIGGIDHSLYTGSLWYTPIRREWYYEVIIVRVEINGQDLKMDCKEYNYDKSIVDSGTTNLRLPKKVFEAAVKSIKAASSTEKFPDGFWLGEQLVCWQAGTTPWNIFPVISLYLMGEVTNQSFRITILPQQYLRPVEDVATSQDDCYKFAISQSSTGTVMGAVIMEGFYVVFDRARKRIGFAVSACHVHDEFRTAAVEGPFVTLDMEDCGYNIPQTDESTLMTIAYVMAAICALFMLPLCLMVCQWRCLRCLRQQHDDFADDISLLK

## CCCOc1c(Cl)cc(CN=C(N)NC(=O)c2c(-c3ccc(OC)cc3)noc2C)cc1Cl
[1]
  Ki: > 5000 nM

## Cc1onc(-c2ccc(F)cc2)c1C(=O)/N=C(\N)NCc1ccc(Cl)c(Cl)c1
[1]
  Ki: 2400 nM

## COc1ccc(-c2noc(C)c2C(=O)NC(N)=NCc2ccc(Cl)c(Cl)c2)cc1
[1]
  Ki: 910 nM

## CCC(=O)Nc1c(C)cc(CN/C(N)=N/C(=O)c2c(-c3ccc(OC)cc3)noc2C)cc1Cl
[2]
  Ratio: 19

## COc1ccc(-c2noc(C)c2C(=O)NC(N)=NCc2cc(C)c(NC(=O)CCSC)c(Cl)c2)cc1
[3]
  IC50: 640 nM
[1]
  Ki: 30 nM

## COc1ccc(-c2nsc(C)c2C(=O)/N=C(\N)NCc2ccc3ccccc3c2)cc1
[1]
  Ki: 870 nM

## COc1ccc(-c2nsc(C)c2C(=O)/N=C(\N)NCc2cc(Cl)c(NC(=O)CN(C)C)c(Cl)c2)cc1
[2]
  Ratio: 4
[3]
  IC50: 70 nM
[1]
  Ki: 20 nM

## C=Cc1cc(Cl)cc(CN/C(N)=N/C(=O)c2c(-c3ccc(OC)cc3)noc2C)c1
[1]
  Ki: 430 nM

## COc1ccc(-c2noc(C)c2C(=O)/N=C(\N)NCc2cc(Cl)cc(Cl)c2)cc1
[4]
  Ratio IC50: 0.8
[5]
  IC50: 3900 nM
[6]
  IC50: 3300 nM
[3]
  IC50: 1600 nM
[1]
  Ki: 670 nM

## COc1ccc(-c2nsc(C)c2C(=O)NC(N)=NCc2cc(C)c(NC(=O)CN(C)C)c(Cl)c2)cc1
[3]
  IC50: 20 nM
[1]
  Ki: 20 nM

## CCC/C=C/c1cc(Cl)cc(CN=C(N)NC(=O)c2c(-c3ccc(OC)cc3)noc2C)c1
[1]
  Ki: 850 nM

## Cc1onc(-c2ccc(F)cc2)c1C(=O)/N=C(\N)NCc1cccc2ccccc12
[1]
  Ki: 1800 nM

## COc1ccc(-c2nsc(C)c2C(=O)/N=C(\N)NCc2cc(C)c(NC(=O)CN(C)C)c(Cl)c2)cc1
[2]
  Ratio: 1

## CCC(=O)Nc1c(C)cc(CN=C(N)NC(=O)c2c(-c3ccc(OC)cc3)noc2C)cc1Cl
[3]
  IC50: 780 nM
[1]
  Ki: 40 nM

## COc1ccc(-c2noc(C)c2C(=O)/N=C(\N)NCc2cc(Cl)c(NC(=O)CSC)c(Cl)c2)cc1
[2]
  Ratio: 40

## CCNCC(=O)Nc1c(Cl)cc(CN/C(N)=N/C(=O)c2c(-c3ccc(OC)cc3)nsc2C)cc1Cl
[2]
  Ratio: 2
[3]
  IC50: 20 nM
[1]
  Ki: 10 nM

## COc1ccc(-c2noc(C)c2C(=O)NC(N)=NCc2cc(Cl)c(N)c(Cl)c2)cc1
[1]
  Ki: 120 nM

## COc1ccc(-c2onc(C)c2C(=O)/N=C(\N)NCc2cc(Cl)cc(Cl)c2)cc1
[1]
  Ki: 860 nM

## COc1ccc(-c2nsc(C)c2C(=O)/N=C(/N)NCc2cc(Cl)c(N)c(Cl)c2)cc1
[5]
  IC50: 1030 nM
[6]
  IC50: 1700 nM
[3]
  IC50: 630 nM
[1]
  Ki: 40 nM

## Cc1onc(-c2ccccc2)c1C(=O)/N=C(\N)NCc1cc(Cl)cc(Cl)c1
[1]
  Ki: 3900 nM

## COc1ccc(-c2c(C(=O)/N=C(\N)NCc3cc(Cl)cc(Cl)c3)c(C)nn2C)cc1
[1]
  Ki: 4000 nM

## COc1ccc(-c2noc(C)c2C(=O)/N=C(\N)NCc2cc(Cl)c(NC(=O)CN(C)C)c(Cl)c2)cc1
[2]
  Ratio: 4
[3]
  IC50: 210 nM
[1]
  Ki: 50 nM

## COc1ccc(-c2noc(C)c2C(=O)/N=C(\N)NCc2cccc3ccccc23)cc1
[1]
  Ki: 1700 nM

## COc1ccc(-c2noc(C)c2C(=O)/N=C(\N)NCc2cc(C)c(NC(=O)c3ccco3)c(Cl)c2)cc1
[2]
  Ratio: 23
[3]
  IC50: 1400 nM
[1]
  Ki: 60 nM

## COc1ccc(-c2nsc(C)c2C(=O)/N=C(\N)NCc2cc(C)c(NC(C)=O)c(Cl)c2)cc1
[2]
  Ratio: 12

## COc1ccc(-c2nsc(C)c2C(=O)/N=C(\N)NCc2cc(C)c(NC(=O)CNCc3ccccc3)c(Cl)c2)cc1
[2]
  Ratio: 7

## Cc1onc(-c2ccccc2)c1C(=O)NC(N)=NCc1cccc2ccccc12
[1]
  Ki: 3900 nM

## COc1ccc(-c2noc(C)c2C(=O)/N=C(\N)NCc2cc(Cl)c(NC(=O)C3CC3)c(Cl)c2)cc1
[2]
  Ratio: 32
[3]
  IC50: 1600 nM
[1]
  Ki: 50 nM

## COC/C=C/c1cc(Cl)cc(CN/C(N)=N/C(=O)c2c(-c3ccc(OC)cc3)noc2C)c1
[1]
  Ki: 150 nM

## COc1ccc(-c2noc(C)c2C(=O)/N=C(\N)NCc2cc(C)cc(C)c2)cc1
[1]
  Ki: 280 nM

## COc1ccc(-c2noc(C)c2C(=O)/N=C(\N)NCc2cc(Cl)cc(/C=C/CCO)c2)cc1
[1]
  Ki: 140 nM

## Cc1onc(-c2ccc(F)cc2)c1C(=O)NC(N)=NCc1ccccc1
[1]
  Ki: > 10000 nM

## Cc1onc(-c2ccccc2)c1C(=O)/N=C(\N)NCc1ccccc1
[1]
  Ki: > 10000 nM

## COc1ccc(-c2noc(C)c2C(=O)NC(N)=NCc2cc(Cl)c(NC(=O)CS(C)(=O)=O)c(Cl)c2)cc1
[3]
  IC50: 1900 nM
[1]
  Ki: 30 nM

## COc1ccc(-c2nsc(C)c2C(=O)/N=C(\N)NCc2cc(Cl)c(N)c(Cl)c2)cc1
[4]
  Ratio IC50: 1.7

## COc1ccc(-c2nsc(C)c2C(=O)/N=C(\N)NCc2cc(Cl)cc(Cl)c2)cc1
[3]
  IC50: > 5000 nM
[1]
  Ki: 290 nM

## COc1ccc(-c2nsc(C)c2C(=O)NC(N)=NCc2cc(Cl)c(NC(=O)CNCc3ccccc3)c(Cl)c2)cc1
[3]
  IC50: 140 nM
[1]
  Ki: 6 nM

## Cc1onc(-c2ccc(F)cc2)c1C(=O)NC(N)=NCc1cc(Cl)cc(Cl)c1
[1]
  Ki: 2200 nM

## COc1ccc(-c2noc(C)c2C(=O)/N=C(\N)NCc2cc(C)c(NC(=O)CCSC)c(Cl)c2)cc1
[2]
  Ratio: 21

## COc1ccc(-c2nsc(C)c2C(=O)/N=C(\N)NCc2cc(Cl)c(NC(=O)CNCc3ccccc3)c(Cl)c2)cc1
[2]
  Ratio: 23

## COc1ccc(-c2noc(C)c2C(=O)/N=C(\N)NCc2cc(Cl)c(NC(=O)CS(C)(=O)=O)c(Cl)c2)cc1
[2]
  Ratio: 63

## COc1ccc(-c2nsc(C)c2C(=O)NC(N)=NCc2cc(C)c(NC(=O)CNCc3ccccc3)c(Cl)c2)cc1
[3]
  IC50: 70 nM
[1]
  Ki: 10 nM

## CCNCC(=O)Nc1c(C)cc(CN/C(N)=N/C(=O)c2c(-c3ccc(OC)cc3)nsc2C)cc1Cl
[2]
  Ratio: 0.5
[3]
  IC50: 10 nM
[1]
  Ki: 20 nM

## COc1ccc(-c2noc(C)c2C(=O)/N=C(\N)NCc2cc(C)c(NC(=O)C3CC3)c(Cl)c2)cc1
[2]
  Ratio: 16
[3]
  IC50: 330 nM
[1]
  Ki: 20 nM

## COc1ccc(-c2noc(C)c2C(=O)/N=C(\N)NCc2cc(Cl)cc(-c3cccnc3)c2)cc1
[1]
  Ki: 1800 nM

## COc1ccc(-c2noc(C)c2C(=O)/N=C(\N)NCc2ccccc2)cc1
[1]
  Ki: 4000 nM

## COc1ccc(-c2nsc(C)c2C(=O)/N=C(\N)NCc2cc(Cl)c(NS(C)(=O)=O)c(Cl)c2)cc1
[1]
  Ki: 280 nM

## COc1ccc(-c2noc(C)c2C(=O)/N=C(\N)NCc2cc(C)c(NC(=O)CN(C)C)c(Cl)c2)cc1
[2]
  Ratio: 2
[3]
  IC50: 90 nM
[1]
  Ki: 50 nM

## COc1ccc(-c2noc(C)c2C(=O)NC(N)=NCc2cc(Cl)cc(-c3ccsc3)c2)cc1
[1]
  Ki: 1200 nM

## COc1ccc(-c2nsc(C)c2C(=O)/N=C(\N)NCc2cccc3ccccc23)cc1
[1]
  Ki: 500 nM

## COc1ccc(-c2nsc(C)c2C(=O)/N=C(\N)NCc2cc(Cl)c(NC(C)=O)c(Cl)c2)cc1
[4]
  Ratio IC50: > 32
[5]
  IC50: 310 nM
[6]
  IC50: > 10000 nM
[2]
  Ratio: 62
[3]
  IC50: 310 nM
[1]
  Ki: 5 nM

## COc1ccc(-c2nsc(C)c2C(=O)/N=C(\N)NCc2cc(Cl)c(NC(=O)CN3CCC3)c(Cl)c2)cc1
[4]
  Ratio IC50: 23
[2]
  Ratio: 2

## Cc1onc(-c2ccccc2)c1C(=O)NC(N)=NCc1ccc(Cl)c(Cl)c1
[1]
  Ki: 8800 nM

## COc1ccc(-c2noc(C)c2C(=O)/N=C(\N)NCc2cc(Cl)c(NC(C)=O)c(Cl)c2)cc1
[3]
  IC50: 790 nM
[1]
  Ki: 10 nM

## COc1ccc(-c2[nH]nc(C)c2C(=O)/N=C(\N)NCc2cc(Cl)cc(Cl)c2)cc1
[1]
  Ki: 210 nM

## COc1ccc(-c2nsc(C)c2C(=O)NC(N)=NCc2cc(Cl)c(NC(=O)CN3CCC3)c(Cl)c2)cc1
[5]
  IC50: 8 nM
[6]
  IC50: 180 nM
[3]
  IC50: 8 nM
[1]
  Ki: 4 nM

## COc1ccc(-c2noc(C)c2C(=O)NC(N)=NCc2cc(Cl)c(NC(=O)CSC)c(Cl)c2)cc1
[3]
  IC50: 2000 nM
[1]
  Ki: 50 nM

## COc1ccc(-c2nsc(C)c2C(=O)NC(N)=NCc2cc(C)c(NC(C)=O)c(Cl)c2)cc1
[3]
  IC50: 240 nM
[1]
  Ki: 20 nM

## COc1ccc(-c2noc(C)c2C(=O)/N=C(\N)NCc2cc(Cl)cc(Br)c2)cc1
[1]
  Ki: 510 nM

## COc1ccc(-c2nsc(C)c2C(=O)/N=C(\N)NCc2cc(C)c(NC(=O)c3ccccc3)c(Cl)c2)cc1
[2]
  Ratio: 13
[3]
  IC50: 430 nM
[1]
  Ki: 30 nM

## COc1ccc(-c2noc(C)c2C(=O)/N=C(\N)NCc2cc(Cl)c(O)c(Cl)c2)cc1
[1]
  Ki: 480 nM
